For data set [1], the system named is rats given phalloidin. In words: Model study: phalloidin intoxication of rats, mortality, liver weight, histology. It is filed as in vivo, rat. As to conditions: for liver histology (light microscopy): phalloidin-intoxicated rats, with or without somatostatin. As for the experimental part: This toxin kills rats within about 4 hours after intraperitoneal injection. Rats injected with phalloidin show a massive increase in liver size accompanied by hemorrhage. In a control group of rats given phalloidin but no somatostatin, 22 or 24 rats died within 2-4 hours. […] In the test group of 26 animals that were treated with both phalloidin and somatostatin, only 8 rats died. Furthermore, only a 30% average increase in liver weight was found in 10 animals treated with somatostatin and phalloidin and sacrificed four hours after intoxication.

Data set [2] concerns hepatic blood vessels of rats given phalloidin. In words: Hepatic uptake of Evans blue after phalloidin (vascular and hepatic membrane lesions). It is filed as in vivo, Sprague-Dawley rat. The settings on record: for Evans blue (μg/g liver): Evans blue 1 mg/100 g i.v. 15 min before autopsy, somatostatin 250 μg s.c. 30 and 10 min before phalloidin; for hepatic uptake of Evans blue, in words: rats given phalloidin with or without somatostatin. As for the experimental part:
(§1) In the biochemical experiments, the animals were also injected with Evans blue 15 min before autopsy. At autopsy the portal vein was perfused in situ with 20 ml of saline to remove blood from hepatic vasculature. […] In the morphologic experiments, groups of rats were also injected with colloidal carbon (India ink, 0.1 mg/100 g i.v.) 15 min before autopsy. At that time pieces of liver were processed for subsequent light or electron microscopic studies. […] In rats given phalloidin, carbon labeling of sinusoidal macrophages was decreased in the centrilobular areas, while early deposits of carbon were seen along the sinusoidal walls in the periportal regions. […] As opposed to controls, carbon particles were also seen beyond endothelial cells and in Disse space soon after phalloidin injection. Subsequently, vacuolation of hepatocytes and increased amount of extravascular plasma-like material were noticed.
In all of the experiments, female or male Sprague-Dawley rats (150-200 g) were used. The animals were given free access to Purina lab chow and tap water. Each group consisted of at least 3-4 rats; every experiment was repeated at least twice and the results were pooled.
Control animals were injected with normal saline 30 min prior to sacrifice and autopsy. Animals treated with phalloidin alone were injected i.p. with 0.12 mg/100 g body weight 15 min, 30 min, or 60 min before sacrifice and autopsy. Animals treated with both phalloidin and somatostatin received phalloidin as above in addition to 250 μg s.c. somatostatin at 30 and 10 minutes before the phalloidin injection. The first somatostatin injection was dissolved in 1 ml of solution consisting of 0.5 ml of 0.1% protamine sulfate and 0.5 ml of ZnCl2, 250-260 μg/ml. The second somatostatin injection was given in normal saline. In addition, rats of all groups were given Evans blue, 1 mg/100 g i.v., 15 min before sacrifice and autopsy. Livers were prefused with 20 ml of saline in situ through the protal vein to remove intravascular dye prior to measuring dye uptake by the liver tissue.
A one gram sample from the left lobe was measured spectrophotometrically to determine the uptake of Evans blue dye in μg/g liver tissue.

The subject of data set [3] is rats given phalloidin. In words: Toxicity of phalloidin: hemorrhagic liver lesions and mortality after pretreatment. As to conditions: for Hepatic lesions (Scale: 0-3) / Mortality (%): pretreatment before phalloidin 0.12 mg/100 g i.p.; for Hepatic lesions (Scale: 0-3): 0=normal, 3=enlargement and uniform hemorrhage of whole liver; for Mortality (%): observed up to 24 hr; for protective effect against phalloidin toxicity (lesions, mortality), in words: rats given phalloidin 0.12 mg/100 g i.p. It is filed as in vivo, Sprague-Dawley rat. As for the experimental part: In the present studies, Sprague-Dawley rats with an initial body weight of about 200 g had free access to Purina lab chow and tap water. Each control and experimental group consisted of 3-5 animals; every experiment was performed at least twice and the results were pooled.
Somatostatin (250 μg in 1 ml of protamine sulfate and ZnCl2 suspension) was injected s.c. 30 min before and 30 min after the administration of phalloidin (0.12 mg/100 g i.p.). In addition, 10 min before the toxin, another dose of 250 μg of somatostatin in 1 ml of distilled water was given i.p. Other groups of rats also received the sulfhydryl blocker N-ethylmaleimide (alone or in combination with somatostatin), 2 mg/100 g s.c. 20 min before and 40 min after phalloidin. A --SH free agalogue of somatostatin was used instead of the regular somatostatin in the same dose and at the same time in some experiments. This --SH free analogus was Di-S-tBu-Somatostatin, in which the hydrogens of the --SH groups (cystein) were replaced with t-butyl groups. […] The hemorrhagic liver lesions were evaluated on a scale of 0-3, where 0=normal, 1=multifocal (1-5 mm) hemorrhages, 2=large hemorrhagic areas entirely involving one lobe (usually the left and/or medium), 3=enlargement and uniform hemorrhage involving the whole liver.

Data set [4] has as its system liver of rats given phalloidin. The data set is described as follows: Morphologic experiments: colloidal carbon (India ink) labeling of liver, light and electron microscopy. It is filed as in vivo, rat. How it is done:
In both cases, rats were given saline (control), phalloidin alone, or phalloidin and somatostatin. Somatostatin was given in subcutaneous injections in a solution of protamine sulfate and zinc chloride in order to prolong its effectiveness, or in normal saline.
as §1

The test system of data set [5] is cysteamine-induced duodenal ulcer. As to conditions: pretreatment with exogenous somatostatin; cited from earlier work.
For data set [6], the system named is experimentally-induced pancreatitis. The settings on record: in vivo; cited from earlier work.
Another data set has as its system adrenal and lung lesions. As to conditions: in vivo; cited from earlier work.
Where [7] appears, read: 15 min after phalloidin 0.12 mg/100 g i.p.
The mark [8] stands for this setting: 30 min after phalloidin 0.12 mg/100 g i.p.
[9] abbreviates: 60 min after phalloidin 0.12 mg/100 g i.p.

Numbered stars: 1 amine (or outer) side, 2 acyl side, 3 side chain; on linkers, the order of the positions; unused ones are H or OH. Bridge positions count the residues as written; N and C are the ends. Square brackets hold non-standard residues; d marks the D form. Peptide text beside a SMILES is read from it. Trp(2-yl) = O=C([C@H](Cc1c([*:3])[nH]c2ccccc12)N[*:1])[*:2]; Leu(4R-OH,5-OH) = C[C@](O)(CO)C[C@H](N)C(=O)O; cisHyp = O=C(O)[C@@H]1C[C@H](O)CN1

In the case of `C[C@@H]1NC(=O)[C@H](C[C@@](C)(O)CO)NC(=O)[C@@H]2Cc3c([nH]c4ccccc34)SC[C@H](NC(=O)[C@@H]([C@H](C)O)NC1=O)C(=O)N1C[C@@H](O)C[C@H]1C(=O)N[C@@H](C)C(=O)N2` [Phalloidin, phalloidin] (cyclo(A[dT]C[cisHyp]A[Trp(2-yl)][Leu(4R-OH,5-OH)]); thioether 3-6), in the data set with rats given phalloidin [1] (after intraperitoneal injection), the “time within which the toxin kills rats” value is not above 4 h. Further, the “average increase in liver weight, phalloidin alone” value in the data set on rats given phalloidin [1] (autopsy of rats that died after phalloidin alone) is 70%. For the same compound, in the data set with rats given phalloidin [1] (control group of 24 rats given phalloidin alone), the “rats died, phalloidin but no somatostatin” value was determined as 22 rats. Moreover, the “time within which control rats died” value in the data set on rats given phalloidin [1] (control group, phalloidin but no somatostatin) lay within 2 to 4 h. Besides, the “liver histology (light microscopy)” value in the data set on rats given phalloidin [1] is “vacuolization of hepatocytes, congestion, and hemorrhagic necrosis”. Moreover, the results for the “Evans blue (μg/g liver)” value in data set [2] (setting [7]), in data set [2] (setting [8]) and in data set [2] (setting [9]) were 11.21 ± 2.40 μg/g liver, 28.50 ± 4.67 μg/g liver and 51.08 ± 13.56 μg/g liver, respectively. Moreover, the “hepatic uptake of Evans blue, in words” value in data set [2] was “time dependent increase”.

`CCN1C(=O)C=CC1=O` [N--Ethylmaleimide (N--EM), N-ethylmaleimide]: the “Hepatic lesions (Scale: 0-3)” value in the data set on rats given phalloidin [3] was determined as 2.3 ± 0.2. The “Mortality (%)” value in the data set on rats given phalloidin [3] was 90%. In addition, the entries for the “protective effect against phalloidin toxicity (lesions, mortality), in words” value (“protective effect” for short) in the data set on rats given phalloidin [3] (listed as N-ethylmaleimide) and with rats given phalloidin [3] (listed as N-ethylmaleimide (N-EM)) were “counteracted the protective action of regular somatostatin” and “counteracted the beneficial effect of somatostatin”, respectively.

In the case of Somatostatin, the “average increase in liver weight, somatostatin and phalloidin” value in the data set with rats given phalloidin [1] (10 animals sacrificed four hours after intoxication) worked out at 30%. For the same compound, in the data set with rats given phalloidin [1], the “liver histology (light microscopy)” value was “only mild vacuolization of hepatocytes and slight congestion”. In addition, in the data set on rats given phalloidin [1] (test group of 26 animals treated with both phalloidin and somatostatin), the “rats died, phalloidin and somatostatin” value turned out to be 8 rats. The “Evans blue (μg/g liver)” value in data set [2] (setting [7]) turned out to be 7.17 ± 0.64 μg/g liver. Also, the “Evans blue (μg/g liver)” value in data set [2] (setting [8]) amounted to 16.93 ± 4.76 μg/g liver. For the same compound, in data set [2] (setting [9]), the “Evans blue (μg/g liver)” value came out at 15.50 ± 4.65 μg/g liver. Moreover, the “hepatic uptake of Evans blue, in words” value in data set [2] was “virtually abolished this enhanced uptake”. Besides, the “hepatic uptake of Evans blue, in words” value in data set [2] (listed as somatostatin) was “prevented or significantly decreased”. Further, in data set [4] (colloidal carbon 0.1 mg/100 g i.v. 15 min before autopsy, after phalloidin), the “distribution of India ink / carbon labeling of sinusoidal walls, light microscopy” value is listed as “virtually abolished the carbon labeling of sinusoidal walls”. The “electron microscopic changes (endothelial breakdown, extravascular carbon, vacuolation of hepatocytes)” value in data set [4] (livers of rats given somatostatin and phalloidin) is listed as “markedly diminished or absent”. For the same compound, in the data set on rats given phalloidin [3], the “Hepatic lesions (Scale: 0-3)” value turned out to be 0.7 ± 0.2; the “Mortality (%)” value was 20%; the “protective effect” value was “significantly diminished”. In data set [5], the cysteamine-induced duodenal ulcer entry was “prevents” and the gastric acid output result is recorded as “minimal inhibition”. The “effect on experimentally-induced pancreatitis” value in data set [6] was “beneficial effect”. Besides, in the data set with adrenal and lung lesions, the “effect on adrenal and lung lesions” value was “beneficial effect”.

As for “Di-S-tBu-Somatostatin [di-S--tBu-Somatostatin]”, the “Hepatic lesions (Scale: 0-3)” value with rats given phalloidin [3] is recorded as 2.7 ± 0.2. For the same compound, in the data set with rats given phalloidin [3], the “Mortality (%)” value was 92%. In addition, the “protective effect” value with rats given phalloidin [3] (listed as somatostatin analogue without thiol groups) is “inactive”; with rats given phalloidin [3] (listed as sulfhydryl-free derivative of somatostatin), “without effect”.
